Our source for the IC50 values is patent publication US10508085B2, “Compounds and methods for IDO and TDO modulation, and indications therefor” (Plexxikon Inc., priority 2016, dated 2019).

Read-outs that look alike come from different tables or passages of the source.

For experiment [1], the target named is T1, human TDO (TDO-expressing HEK293 cells) (Homo sapiens, UniProt P48775).
T1 construct: expressed in transfected cells
Put plainly: Cell based kynurenine assay, TDO-expressing HEK293 cell clones. To be noted: TDO-expressing HEK293 cells, geometric mean, read-out: HEK293 TDO Kynurenine GMean IC50 (μM) (Cellular Assay). The method, boiled down:
(§1)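 HEK293 stable clones (hIDO1 or hTDO, CMV-driven; G418-selected); 2.5×10^4 cells/well; compound serial dilution, 24 h, 37 °C, 5% CO2; supernatant kynurenine; IC50 by nonlinear fit.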

The target in experiment [2] is T2, Human Tryptophan 2,3-dioxygenase (TDO) (Homo sapiens, UniProt P48775).
T2 construct: His tag (N); made in house; host or cells: E. coli
Put plainly: Human TDO enzymatic assay (kynurenine level). The format is biochemical. The settings on record: 1 nM TDO, 350 μM L-Trp; geometric mean; read-out: TDO GMean: IC50 (μM) (Biochemical Assay). The method, boiled down: (§2)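 Compound is mixed with His-tagged enzyme from E. coli in pH 6.5 phosphate buffer containing ascorbate, methylene blue and catalase, at room temperature. IDO uses 6 nM enzyme and 10 μM Trp for 20 min. TDO uses 1 nM enzyme and 350 μM Trp for 70 min. TCA stops the reaction, and IC50 is derived from kynurenine levels.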

Experiment [3] deals with T3, human IDO (IDO1-expressing HEK293 cells) (Homo sapiens, UniProt P14902).
T3 construct: expressed in transfected cells
Description: Cell based kynurenine assay, IDO1-expressing HEK293 cell clones. The settings on record: IDO1-expressing HEK293 cells, geometric mean, read-out: HEK293 IDO1 Kynurenine GMean IC50 (μM) (Cellular Assay). The method, boiled down: as §1

Experiment [4] has as its target T4, Human Indoleamine 2,3-dioxygenase (IDO) (Homo sapiens, UniProt P14902).
T4 construct: His tag (N); made in house; host or cells: E. coli
Description: Human IDO enzymatic assay (kynurenine level). It is filed as biochemical. The settings on record: 6 nM IDO, 10 μM L-Trp; geometric mean; read-out: IDO1 GMean: IC50 (μM) (Biochemical Assay). In outline: as §2

T3 sequence (P14902 whole entry): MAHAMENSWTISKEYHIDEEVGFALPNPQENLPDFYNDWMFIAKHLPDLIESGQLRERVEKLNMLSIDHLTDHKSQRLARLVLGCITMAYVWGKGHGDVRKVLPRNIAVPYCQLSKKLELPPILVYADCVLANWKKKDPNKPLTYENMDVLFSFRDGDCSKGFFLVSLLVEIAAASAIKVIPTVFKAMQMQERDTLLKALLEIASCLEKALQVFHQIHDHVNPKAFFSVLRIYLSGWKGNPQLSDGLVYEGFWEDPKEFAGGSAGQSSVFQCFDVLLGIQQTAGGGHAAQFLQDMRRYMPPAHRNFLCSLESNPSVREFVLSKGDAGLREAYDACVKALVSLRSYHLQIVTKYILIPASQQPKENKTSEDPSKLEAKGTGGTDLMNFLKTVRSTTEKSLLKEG
T4 sequence (P14902 whole entry): as above
T2 sequence (P48775 whole entry): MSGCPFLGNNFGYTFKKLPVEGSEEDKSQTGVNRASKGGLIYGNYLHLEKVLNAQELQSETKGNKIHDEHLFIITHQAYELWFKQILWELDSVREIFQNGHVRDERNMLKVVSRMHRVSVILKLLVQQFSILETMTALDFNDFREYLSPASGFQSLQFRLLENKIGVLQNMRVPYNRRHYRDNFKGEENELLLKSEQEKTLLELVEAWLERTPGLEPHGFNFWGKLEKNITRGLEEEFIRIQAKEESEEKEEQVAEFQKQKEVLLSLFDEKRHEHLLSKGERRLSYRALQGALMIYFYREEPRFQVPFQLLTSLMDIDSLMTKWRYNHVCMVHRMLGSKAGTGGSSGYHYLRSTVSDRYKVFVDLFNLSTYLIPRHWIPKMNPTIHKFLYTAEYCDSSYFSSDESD
T1 sequence (P48775 whole entry): as above

As for `CC(C)(C1CCN(C(=O)Nc2ccc(Cl)cc2)CC1)C(O)c1cc(Cl)cc2cn[nH]c12` (stereo not shown) [Compound P-0361, 4-(1-(5-chloro-1H-indazol-7-yl)-1-hydroxy-2-methylpropan-2-yl)-N-(4-chlorophenyl) piperidine-1-carboxamide], the IC50 in experiment [1] (24 hours incubation), in experiment [2], in experiment [3] (24 hours incubation) and in experiment [4] was 0.0001 to 10 µM each time.
Turning to `OC(c1cccc2cncn12)C1CC2CCC1C2` (stereo not shown) [Compound P-0059, bicyclo[2.2.1]heptan-2-yl(imidazo[1,5-a]pyridin-5-yl)methanol], the IC50 in experiment [1] (24 hours incubation) is greater than 10 µM; in experiment [2] it was 0.0001 to 10 µM; in experiment [3] (24 hours incubation), 0.0001 to 10 µM; in experiment [4] it was 0.0001 to 10 µM.
As for `CC1(C(O)c2c(F)c(Cl)c(F)c3cn[nH]c23)CC(F)(F)C1` (stereo not shown) [Compound P-0112, (5-chloro-4,6-difluoro-1H-indazol-7-yl)(3,3-difluoro-1-methylcyclobutyl)methanol], the concentration for half-maximal inhibition (IC50) in experiment [1] (24 hours incubation), in experiment [2], in experiment [3] (24 hours incubation) and in experiment [4] was 0.0001 to 10 µM in each case.
With `O=C(Cc1cccc(Cl)c1)N1CCC(C(F)(F)C(O)c2cc(Cl)cc3cn[nH]c23)CC1` (stereo not shown) [Compound P-0520, 1-(4-(2-(5-chloro-1H-indazol-7-yl)-1,1-difluoro-2-hydroxyethyl)piperidin-1-yl)-2-(3-chlorophenyl) ethan-1-one], the IC50 in experiment [1] (24 hours), in experiment [2], in experiment [3] (24 hours) and in experiment [4] was 0.0001 to 10 µM each time.
In the case of `CC(C)(C1CCN(C(=O)Nc2ccc(C#N)cc2)CC1)C(O)c1cc(Cl)cc2cn[nH]c12` (stereo not shown) [Compound P-0168, 4-(1-(5-chloro-1H-indazol-7-yl)-1-hydroxy-2-methylpropan-2-yl)-N-(4-cyanophenyl)piperidine-1-carboxamide], the IC50 in experiment [1] (24 hours incubation), in experiment [2], in experiment [3] (24 hours incubation) and in experiment [4] was 0.0001 to 10 µM throughout.
For `CS(=O)(=O)N1C[C@H]2CC[C@@H](C1)[C@H]2C(F)(F)C(O)c1cc(Cl)cc2cn[nH]c12` (stereo partly drawn) [Compound P-0131, 1-(5-chloro-1H-indazol-7-yl)-2,2-difluoro-2-((1R,5S,8s)-3-(methylsulfonyl)-3-azabicyclo[3.2.l]octan-8-yl)ethan-l-ol], the IC50 in experiment [1] (24 hours incubation), in experiment [2], in experiment [3] (24 hours incubation) and in experiment [4] was 0.0001 to 10 µM in each case.
`CC(C)(C1CCC1)C(O)c1cc(Cl)cc2cn[nH]c12` (stereo not shown) [Compound P-0118, 1-(5-chloro-1H-indazol-7-yl)-2-cyclobutyl-2-methylpropan-1-ol]: the IC50 in experiment [1] (24 hours incubation), in experiment [2], in experiment [3] (24 hours incubation) and in experiment [4] was 0.0001 to 10 µM throughout.
On to `CC(C)(C1CCOCC1)C(O)c1c(F)c(Cl)cc2cn[nH]c12` (stereo not shown) [Compound P-0232, 1-(5-chloro-6-fluoro-1H-indazol-7-yl)-2-methyl-2-(tetrahydro-2H-pyran-4-yl)propan-1-ol], for which the IC50 in experiment [1] (24 hours incubation), in experiment [2], in experiment [3] (24 hours incubation) and in experiment [4] was 0.0001 to 10 µM each time.
For the molecule `CC(C)(C1CCN(C(=O)C2C(C)(C)C2(C)C)CC1)C(O)c1cc(Cl)cc2cn[nH]c12` (stereo not shown) [Compound P-0474, (4-(1-(5-chloro-1H-indazol-7-yl)-1-hydroxy-2-methylpropan-2-yl)piperidin-1-yl)(2,2,3,3-tetramethylcyclopropyl) methanone], the IC50 in experiment [1] (24 hours), in experiment [2], in experiment [3] (24 hours) and in experiment [4] was 0.0001 to 10 µM in each case.
Take `CC(C)S(=O)(=O)N1CC2CCC(C1)C2CC(O)c1cc(Cl)cc2cn[nH]c12` (stereo not shown) [Compound P-0291, 1-(5-chloro-1H-indazol-7-yl)-2-(3-(isopropylsulfonyl)-3-azabicyclo[3.2.1]octan-8-yl)ethan-1-ol]: the IC50 in experiment [1] (24 hours incubation), in experiment [2], in experiment [3] (24 hours incubation) and in experiment [4] was 0.0001 to 10 µM each time.
On to `CN(C)CC(=O)N1CCC(C(C)(C)[C@H](O)c2cc(Cl)cc3cn[nH]c23)CC1` [Compound P-0547, (S)-1-(4-(1-(5-chloro-1H-indazol-7-yl)-1-hydroxy-2-methylpropan-2-yl)piperidin-1-yl)-2-(dimethylamino) ethan-1-one], for which the IC50 in experiment [1] (24 hours), in experiment [2], in experiment [3] (24 hours) and in experiment [4] was 0.0001 to 10 µM each time.
For `COC12CCC(C(O)c3cc(Cl)cc4[nH]ncc34)(CC1)CC2` (stereo not shown) [Compound P-0348, (6-chloro-1H-indazol-4-yl)(4-methoxybicyclo [2.2.2]octan-1-yl)methanol], the IC50 in experiment [1] (24 hours incubation) is 0.0001 to 10 µM; in experiment [2], 0.0001 to 10 µM; in experiment [3] (24 hours incubation), greater than 10 µM; in experiment [4], 0.0001 to 10 µM.
`O[C@@H](c1c(F)c(Cl)cc2cn[nH]c12)C12CCC(CC1)CC2` [Compound P-0335, (R)-bicyclo[2.2.2]octan-1-yl(5-chloro-6-fluoro-1H-indazol-7-yl)methanol]: the 50% inhibitory concentration (IC50) in experiment [1] (24 hours incubation) is greater than 10 µM; in experiment [2] it was 0.0001 to 10 µM; in experiment [3] (24 hours incubation) it was 0.0001 to 10 µM; in experiment [4], 0.0001 to 10 µM.
For `OC(c1cc(Cl)cc2cn[nH]c12)C1CC2(CCC2)C1` (stereo not shown) [Compound P-0195, (5-chloro-1H-indazol-7-yl)(spiro[3.3]heptan-2-yl)methanol], the half-inhibitory concentration (IC50) in experiment [1] (24 hours incubation), in experiment [2], in experiment [3] (24 hours incubation) and in experiment [4] was 0.0001 to 10 µM each time.
In the case of `OC(c1c(F)c(Cl)c(F)c2cn[nH]c12)C1(C2CCCCC2)CC1` (stereo not shown) [Compound P-0247, (5-chloro-4,6-difluoro-1H-indazol-7-yl)(1-cyclohexylcyclopropyl)methanol], the half-maximal inhibitory concentration (IC50) in experiment [1] (24 hours incubation), in experiment [2], in experiment [3] (24 hours incubation) and in experiment [4] was 0.0001 to 10 µM throughout.
Regarding `COc1cccc(CC(=O)N2CCC(C(F)(F)C(O)c3cc(Cl)cc4cn[nH]c34)CC2)c1` (stereo not shown) [Compound P-0522, 1-(4-(2-(5-chloro-1H-indazol-7-yl)-1,1-difluoro-2-hydroxyethyl)piperidin-1-yl)-2-(3-methoxyphenyl) ethan-1-one], the 50% inhibitory concentration (IC50) in experiment [1] (24 hours), in experiment [2], in experiment [3] (24 hours) and in experiment [4] was 0.0001 to 10 µM throughout.
With `CNC(=O)N1[C@@H]2CC[C@H]1C[C@@H](C(C)(C)C(O)c1cc(Cl)cc3cn[nH]c13)C2` (stereo partly drawn) [Compound P-0442, (1R,3r,5S)-3-(1-(5-chloro-1H-indazol-7-yl)-1-hydroxy-2-methylpropan-2-yl)-N-methyl-8-azabicyclo[3.2.1] octane-8-carboxamide], the IC50 in experiment [1] (24 hours), in experiment [2], in experiment [3] (24 hours) and in experiment [4] was 0.0001 to 10 µM each time.
In the case of `COC12CCC(C(O)c3cc(Cl)cc4cn[nH]c34)(CC1)CC2` (stereo not shown) [Compound P-0136, (5-chloro-1H-indazol-7-yl)(4-methoxybicyclo[2.2.2]octan-1-yl)methanol], the IC50 in experiment [1] (24 hours incubation), in experiment [2], in experiment [3] (24 hours incubation) and in experiment [4] was 0.0001 to 10 µM in each case.
Regarding `OC1(c2cc(Cl)cc3[nH]ncc23)CC2(CCOCC2)C1` [Compound P-0372, 2-(6-chloro-1H-indazol-4-yl)-7-oxaspiro[3.5] nonan-2-ol], the IC50 in experiment [1] (24 hours incubation) was greater than 10 µM; in experiment [2] it was 0.0001 to 10 µM; in experiment [3] (24 hours incubation), 0.0001 to 10 µM; in experiment [4], greater than 200 µM.
Consider `CC(C)(C(O)c1cc(Cl)cc2cn[nH]c12)N1CCOCC1` (stereo not shown) [Compound P-0215, 1-(5-chloro-1H-indazol-7-yl)-2-methyl-2-morpholinopropan-1-ol], for which the IC50 in experiment [1] (24 hours incubation), in experiment [2], in experiment [3] (24 hours incubation) and in experiment [4] was 0.0001 to 10 µM throughout.
`CC(C)(C1CCN(C(=O)Nc2ccc(F)cc2)CC1)[C@@H](O)c1cc(Cl)cc2cn[nH]c12` [Compound P-0339, (R)-4-(1-(5-chloro-1H-indazol-7-yl)-1-hydroxy-2-methylpropan-2-yl)-N-(4-fluorophenyl) piperidine-1-carboxamide]: the IC50 in experiment [1] (24 hours incubation), in experiment [2], in experiment [3] (24 hours incubation) and in experiment [4] was 0.0001 to 10 µM in each case.
As to `OC(c1cc(Cl)cc2cn[nH]c12)C1CC2CCC1C2` (stereo not shown) [Compound P-0240, bicyclo[2.2.1]heptan-2-yl(5-chloro-1H-indazol-7-yl)methanol], the IC50 in experiment [1] (24 hours incubation), in experiment [2], in experiment [3] (24 hours incubation) and in experiment [4] was 0.0001 to 10 µM throughout.

Broadly, the IC50 is the concentration needed to halve the response being measured.
